Where a name gives a salt, the structure may show the parent alone.
Legend:
[1] = target: T1, IRAK4 (Homo sapiens, UniProt Q9NWZ3); experiment: ALE THP1 HTRF (IRAK4 in THP1 cell lysates, Homogeneous Time Resolved Fluorescence); assay type: cell-based; parameters: THP1 Homogeneous Time Resolved Fluorescence (ALE THP1 HTRF) Procedure; endogenous in cells; host or cells: THP1; conditions: THP1 cells
T1 sequence (Q9NWZ3 1-460): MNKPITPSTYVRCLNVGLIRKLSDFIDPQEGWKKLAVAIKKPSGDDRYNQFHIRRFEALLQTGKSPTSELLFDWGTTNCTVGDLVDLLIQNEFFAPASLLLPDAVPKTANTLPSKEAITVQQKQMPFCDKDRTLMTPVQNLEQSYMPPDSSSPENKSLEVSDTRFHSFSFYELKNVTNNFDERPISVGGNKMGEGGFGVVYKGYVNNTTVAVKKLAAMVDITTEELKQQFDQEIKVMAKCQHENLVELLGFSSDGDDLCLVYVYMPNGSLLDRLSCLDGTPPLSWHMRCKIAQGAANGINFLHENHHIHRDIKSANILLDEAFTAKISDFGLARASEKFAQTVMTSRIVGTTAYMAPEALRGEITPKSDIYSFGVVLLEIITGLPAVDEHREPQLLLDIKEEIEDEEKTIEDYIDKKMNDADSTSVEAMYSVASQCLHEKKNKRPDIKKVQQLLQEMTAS
Method: Cell culture media was prepared in a tissue culture hood in a sterile environment by adding 10% FBS and 1% Penicillin Streptomycin to 500 mL no phenol red RPMI 1640 media. The media was filtered through a Nalgene Bottle Top Filter and stored at 4° C.
For Homogenous Time Resolved Fluorescence (HTRF) assays, a Cisbio HTRF kit was used, which included: Lysis Buffer #1 4×, Blocking Reagent #3 100×, 20× Antibody 1 (Anti-IRAK4 d2), 20× Antibody 2 (Anti-IRAK4 k), and Detection Buffer.
4× Lysis Buffer was stored at 4° C. For use as 1× Lysis buffer, the 4× solution was diluted with de-ionized water (distilled water, Gibco Cat. #15230279) and 100× Blocking Reagent in a 1:3:0.04 volume ratio.
20× Antibody Solution aliquots were stored in −80° C. and the Detection Buffer was stored in 4° C. For use as a 1× Antibody Solution, the 20× Antibody Solution aliquot was diluted with Detection Buffer in a 1:19 volume ratio.
Cells were lysed at room temperature for 45 min with shaking. A BCA protein assay was performed and normalization was conducted to the desired total protein concentration with 1× lysis buffer. Next, 1× Antibody Solutions were prepared by adding 380 μL Detection Buffer to 20 μL 20× Antibody Solution aliquots and mixing well. 1× Antibody Solutions were combined 1:1 and briefly vortexed. For control wells, 20 μL 1× anti IRAK4-k Antibody Solution was saved. The 384-well plate (ProxiPlate-384 Plus, Perkin Elmer Cat. #6008289) was loaded by adding 4 μL of the mixed Antibody Solution to empty wells using a single channel repeater. Using a multi-channel repeater, 16 μL lysate was added per well, and any bubbles that were formed were popped with 20 μL pipette tips and Kimwipe edges. In column 10, triplicates of each control was prepared. In wells A10, B10, and C10, buffer control was prepared by adding 16 μL Lysis Buffer and 4 μL Detection Buffer. In wells D10, E10, and F10, cryptate control was prepared by adding 16 μL Lysis Buffer, 2 μL Detection Buffer, and 2 μL 1× anti IRAK4-k Antibody Solution. In wells G10, H10, and 110, a negative control was prepared by adding 16 μL Lysis Buffer and 4 μL mixed Antibody Solution. The plate was sealed with a clear seal and covered with an aluminum lid. The plate was spun down at 800 g for 5 min and incubated in the dark at room temperature overnight. The next day, the plate was spun down at 800 g for 5 min. The samples were analyzed by a plate reader (Envision, PerkinElmer) using the Desnor 384 HTRF program.

[2] = target: T1, IRAK4; experiment: IRAK4 PhosphoSens Biochemical Assay (BIOCHEM); conditions: 200 μM ATP, 10 μM peptide substrate AQT0326, 1 nM IRAK4, room temperature, 240 minutes

SMILES | EC50 [1] [nM] | IC50 [2] [nM]
Cc1ccc(Nc2ccn3ncc(C(=O)Nc4cn([C@H]5CC[C@H](CN(C)C6CCN(c7ccc8c(C9CCC(=O)NC9=O)nn(C)c8c7)CC6)CC5)nc4C(F)F)c3n2)cn1 (stereo partly drawn) [P-48] | 3510 | 
Cn1nc(C2CCC(=O)NC2=O)c2ccc(N3CCN(CC[C@H]4CC[C@H](n5cc(NC(=O)c6cnn7ccc(N8C[C@H](N)C[C@@H](F)C8)nc67)c(C(F)F)n5)CC4)CC3)cc21 (stereo partly drawn) [P-10] | 14 | < 0.5
CN(c1ccc2c(C3CCC(=O)NC3=O)nn(C)c2c1)C1CCN(C[C@H]2CC[C@H](n3cc(NC(=O)c4cnn5ccc(N6C[C@H](N)C[C@@H](F)C6)nc45)c(C(F)F)n3)CC2)CC1 (stereo partly drawn) [P-31] | 3 | < 0.5
Cn1nc(C2CCC(=O)NC2=O)c2ccc(NC3CCN(CC4CCC(n5cc(NC(=O)c6cnn7ccc(N8C[C@H](N)C[C@H](F)C8)nc67)c(C(F)F)n5)CC4)CC3)cc21 (stereo partly drawn) [P-19] | 5 | < 0.5
CN(C[C@H]1CC[C@H](n2cc(NC(=O)c3cnn4ccc(NCCN)nc34)c(C(F)F)n2)CC1)C1CCN(c2ccc3c(C4CCC(=O)NC4=O)nn(C)c3c2)CC1 (stereo partly drawn) [P-45] | 4 | < 0.5
Cn1nc(C2CCC(=O)NC2=O)c2ccc(NC3CCN(CC[C@H]4CC[C@H](n5cc(NC(=O)c6cnn7ccc(N8C[C@H](N)C[C@@H](F)C8)nc67)c(C(F)F)n5)CC4)CC3)cc21 (stereo partly drawn) [P-16] | 5 | < 0.5
Cn1nc(C2CCC(=O)NC2=O)c2ccc(OC3CCN(C[C@H]4CC[C@H](n5cc(NC(=O)c6cnn7ccc(N8C[C@H](N)C[C@@H](F)C8)nc67)c(C(F)F)n5)CC4)CC3)cc21 (stereo partly drawn) [P-26] | 11 | < 0.5
Cn1nc(C2CCC(=O)NC2=O)c2ccc(NC3CC4(C3)CN(CC3CCC(n5cc(NC(=O)c6cnn7ccc(N8C[C@H](N)C[C@@H](F)C8)nc67)c(C(F)F)n5)CC3)C4)cc21 (stereo partly drawn) [P-12] | 6 | < 0.5
CN(c1ccc2c(C3CCC(=O)NC3=O)nn(C)c2c1)C1CCN(CC[C@H]2CC[C@H](n3cc(NC(=O)c4cnn5ccc(N6C[C@H](N)C[C@@H](F)C6)nc45)c(C(F)F)n3)CC2)CC1 (stereo partly drawn) [P-33] | 10 | < 0.5
Cn1nc(C2CCC(=O)NC2=O)c2cccc(N3CCN(CCC4CCC(n5cc(NC(=O)c6cnn7ccc(N8C[C@H](N)C[C@@H](F)C8)nc67)c(C(F)F)n5)CC4)CC3)c21 (stereo partly drawn) [P-11] | 17 | < 0.5
CN(CC[C@H]1CC[C@H](n2cc(NC(=O)c3cnn4ccc(N5CCOCC5)nc34)c(C(F)F)n2)CC1)C1CCN(c2cccc3c(C4CCC(=O)NC4=O)nn(C)c23)CC1 (stereo partly drawn) [P-35] | 4 | 0.8
Cn1nc(C2CCC(=O)NC2=O)c2ccc(NC3CCN(C(=O)[C@H]4CC[C@H](n5cc(NC(=O)c6cnn7ccc(N8C[C@H](N)C[C@@H](F)C8)nc67)c(C(F)F)n5)CC4)CC3)cc21 (stereo partly drawn) [P-1] | > 10000 | 0.5
CN(C)c1ccn2ncc(C(=O)Nc3cn([C@H]4CC[C@H](CN(C)C5CCN(c6ccc7c(C8CCC(=O)NC8=O)nn(C)c7c6)CC5)CC4)nc3C(F)F)c2n1 (stereo partly drawn) [P-43] | > 10000 | < 0.5
CN(C[C@H]1CC[C@H](n2cc(NC(=O)c3cnn4ccc(N5CCOC5)nc34)c(C(F)F)n2)CC1)C1CCN(c2ccc3c(C4CCC(=O)NC4=O)nn(C)c3c2)CC1 (stereo partly drawn) [P-41] | > 10000 | < 0.5
CN(C[C@H]1CC[C@H](n2cc(NC(=O)c3cnn4ccc(N5CC[C@@H](c6ccn(C)n6)C5)nc34)c(C(F)F)n2)CC1)C1CCN(c2ccc3c(C4CCC(=O)NC4=O)nn(C)c3c2)CC1 (stereo partly drawn) [P-47] | 3750 | 2.4
CN(C[C@H]1CC[C@H](n2cc(NC(=O)c3cnn4ccc(N5CC[C@H](c6ccn(C)n6)C5)nc34)c(C(F)F)n2)CC1)C1CCN(c2ccc3c(C4CCC(=O)NC4=O)nn(C)c3c2)CC1 (stereo partly drawn) [P-46] | > 3000 | 0.8
Cn1nc(C2CCC(=O)NC2=O)c2cccc(N3CCC(NC[C@H]4CC[C@H](n5cc(NC(=O)c6cnn7ccc(N8C[C@H](N)C[C@@H](F)C8)nc67)c(C(F)F)n5)CC4)CC3)c21 (stereo partly drawn) [P-15] | 10 | < 0.5
Cn1nc(C2CCC(=O)NC2=O)c2cccc(N3CCN(C[C@H]4CC[C@H](n5cc(NC(=O)c6cnn7ccc(N8C[C@H](N)C[C@@H](F)C8)nc67)c(C(F)F)n5)CC4)CC3)c21 (stereo partly drawn) [P-8] | 7 | < 0.5
Cn1nc(C2CCC(=O)NC2=O)c2cccc(NC3CCN(C(=O)[C@H]4CC[C@H](n5cc(NC(=O)c6cnn7ccc(N8C[C@H](N)C[C@@H](F)C8)nc67)c(C(F)F)n5)CC4)CC3)c21 (stereo partly drawn) [P-9, 5-((3R,5R)-3-amino-5-fluoropiperidin-1-yl)-N-(3-(difluoromethyl)-1-((1r,4r)-4-(4-((3-(2,6-dioxopiperidin-3-yl)-1-methyl-1H-indazol-7-yl)amino)piperidine-1-carbonyl)cyclohexyl)-1H-pyrazol-4-yl)pyrazolo[1,5-a]pyrimidine-3-carboxamide hydrochloride] | 4 | < 0.5
Cn1nc(C2CCC(=O)NC2=O)c2ccc(N3CCN(CCN4CCC(n5cc(NC(=O)c6cnn7ccc(N8C[C@H](N)C[C@@H](F)C8)nc67)c(C(F)F)n5)CC4)CC3)cc21 (stereo partly drawn) [P-40, N-[3-(Difluoromethyl)-1-[1-[2-[4-[3-(2,6-dioxo-3-piperidyl)-1-methyl-indazol-6-yl]piperazin-1-yl]ethyl]-4-piperidyl]pyrazol-4-yl]-5-[(3R,5R)-3-amino-5-fluoro-1-piperidyl]pyrazolo[1,5-a]pyrimidine-3-carboxamide] | 6 | < 0.5
CN(c1ccc2c(C3CCC(=O)NC3=O)nn(C)c2c1)C1CCN(C[C@H]2CC[C@H](n3cc(NC(=O)c4cnn5ccc(N6CCOCC6)nc45)c(C(F)F)n3)CC2)CC1 (stereo partly drawn) [P-32] | 1 | < 0.5
Cn1nc(C2CCC(=O)NC2=O)c2ccc(N3CCC(NC(=O)[C@H]4CC[C@H](n5cc(NC(=O)c6cnn7ccc(N8C[C@H](N)C[C@@H](F)C8)nc67)c(C(F)F)n5)CC4)CC3)cc21 (stereo partly drawn) [P-4, 5-((3R,5R)-3-amino-5-fluoropiperidin-1-yl)-N-(3-(difluoromethyl)-1-((1r,4r)-4-((1-(3-(2,6-dioxopiperidin-3-yl)-1-methyl-1H-indazol-6-yl)piperidin-4-yl)carbamoyl)cyclohexyl)-1H-pyrazol-4-yl)pyrazolo[1,5-a]pyrimidine-3-carboxamide hydrochloride] | 5.6 | < 0.5
CN(C[C@H]1CC[C@H](n2cc(NC(=O)c3cnn4ccc(N5CCOCC5)nc34)c(C(F)F)n2)CC1)C1CCN(c2ccc3c(C4CCC(=O)NC4=O)nn(C)c3c2)CC1 (stereo partly drawn) [P-29, N-[3-(Difluoromethyl)-1-[4-[[[1-[3-(2,6-dioxo-3-piperidyl)-1-methyl-indazol-6-yl]-4-piperidyl]-methyl-amino]methyl]cyclohexyl]pyrazol-4-yl]-5-morpholino-pyrazolo[1,5-a]pyrimidine-3-carboxamide] | > 10000 | < 0.5
Cn1nc(C2CCC(=O)NC2=O)c2cccc(N3CCC(NC(=O)[C@H]4CC[C@H](n5cc(NC(=O)c6cnn7ccc(N8C[C@H](N)C[C@@H](F)C8)nc67)c(C(F)F)n5)CC4)CC3)c21 (stereo partly drawn) [P-6] | 5 | < 0.5
Cn1nc(C2CCC(=O)NC2=O)c2ccc(N[C@@H]3CCN(CC4CCC(n5cc(NC(=O)c6cnn7ccc(N8C[C@H](N)C[C@@H](F)C8)nc67)c(C(F)F)n5)CC4)C[C@H]3F)cc21 (stereo partly drawn) [P-22] | 5 | < 0.5
CN(CC[C@H]1CC[C@H](n2cc(NC(=O)c3cnn4ccc(N5CCOCC5)nc34)c(C(F)F)n2)CC1)C1CCN(c2ccc3c(C4CCC(=O)NC4=O)nn(C)c3c2)CC1 (stereo partly drawn) [P-38] | > 10000 | < 0.5
